Results on 31 compounds are retold here after patent US9133181B2, “Substituted 6-(4-hydroxy-phenyl)-1H-pyrazolo[3,4-b]pyridine derivatives as kinase inhibitors” (SANOFI, priority 2012, dated 2015).

T1 sequence (P05771 1-673 isoform P05771-2): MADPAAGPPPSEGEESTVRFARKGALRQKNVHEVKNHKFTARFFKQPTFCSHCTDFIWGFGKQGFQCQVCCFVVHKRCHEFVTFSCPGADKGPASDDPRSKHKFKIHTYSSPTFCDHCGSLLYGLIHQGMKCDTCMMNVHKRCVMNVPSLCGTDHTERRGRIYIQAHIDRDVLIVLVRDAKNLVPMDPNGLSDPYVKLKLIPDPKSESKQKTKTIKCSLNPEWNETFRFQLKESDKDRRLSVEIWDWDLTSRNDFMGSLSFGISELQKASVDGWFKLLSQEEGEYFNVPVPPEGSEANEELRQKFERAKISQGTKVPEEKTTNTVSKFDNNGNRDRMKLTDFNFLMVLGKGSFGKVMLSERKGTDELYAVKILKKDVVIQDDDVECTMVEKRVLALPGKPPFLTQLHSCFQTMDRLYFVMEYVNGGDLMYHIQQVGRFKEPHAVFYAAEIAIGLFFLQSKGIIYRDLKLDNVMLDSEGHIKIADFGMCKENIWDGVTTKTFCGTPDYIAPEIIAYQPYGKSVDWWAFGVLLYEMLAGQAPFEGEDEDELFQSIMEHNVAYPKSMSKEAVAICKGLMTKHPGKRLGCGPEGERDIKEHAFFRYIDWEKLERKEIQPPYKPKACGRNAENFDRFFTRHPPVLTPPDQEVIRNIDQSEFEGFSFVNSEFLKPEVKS

This assay addresses T1, human full-length recombinant PKC βII (Homo sapiens, UniProt P05771).
T1 construct: Active human full-length recombinant PKC βII; purchased Invitrogen GmbH, Darmstadt, Germany
In words: Determination of PKC βII inhibition (Caliper mobility shift kinase assay). The format is biochemical. The settings on record: final compound concentration 1.14 μM (±0.15 μM); 60 min incubation at 32° C. The method, boiled down:
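Compound was tested at a final 1.14 µM (±0.15 µM), with % inhibition derived from the product/(substrate+product) peak ratio on a Caliper mobility-shift read-out. Full-length PKC βII was activated by CaCl2, PS and DAG in pH 7.4 Hepes/MgCl2. Peptide and ATP were at 3 µM and 120 µM in the added mix. Incubation was 60 min at 32 °C.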
For the compound `Cc1n[nH]c2nc(-c3ccc(O)cc3F)cc(CN3CCNC[C@H]3c3ccccc3)c12` [Example 110, 3-Fluoro-4-[3-methyl-4-((R)-2-phenyl-piperazin-1-ylmethyl)-1H-pyrazolo[3,4-b]pyridin-6-yl]-phenol], the inhibition at 1.14 µM worked out at 42%.
The same measure for `CNC1CCN(Cc2cc(-c3ccc(O)cc3)nc3[nH]nc(C)c23)C1` (stereo not shown) [Example 93, 4-[3-Methyl-4-(3-methylamino-pyrrolidin-1-ylmethyl)-1H-pyrazolo[3,4-b]pyridin-6-yl]-phenol]: 81%; for `Cc1n[nH]c2nc(-c3ccc(O)cc3F)cc(CN3CC4(CCCC4)NCC3(C)C)c12` [Example 36, 4-[4-(8,8-Dimethyl-6,9-diaza-spiro[4.5]dec-9-ylmethyl)-3-methyl-1H-pyrazolo[3,4-b]pyridin-6-yl]-3-fluoro-phenol]: 94%.
To `Cc1n[nH]c2nc(-c3ccc(O)cc3F)cc(CN3CCNC[C@H]3c3ccc(F)cc3)c12` [Example 106, 3-Fluoro-4-{4-[(R)-2-(4-fluoro-phenyl)-piperazin-1-ylmethyl]-3-methyl-1H-pyrazolo[3,4-b]pyridin-6-yl}-phenol] belongs 104%.
As to `COCC(=O)NC1(C)CCCN(Cc2cc(-c3ccc(O)cc3F)nc3[nH]nc(C)c23)C1` (stereo not shown) [Example 81, N-{1-[6-(2-Fluoro-4-hydroxy-phenyl)-3-methyl-1H-pyrazolo[3,4-b]pyridin-4-ylmethyl]-3-methyl-piperidin-3-yl}-2-methoxy-acetamide], the inhibition at 1.14 µM is 97%.
On to `Cc1n[nH]c2nc(-c3ccc(O)cc3F)cc(CN3CCNCC3c3ccccc3)c12` (stereo not shown) [Example 1, 3-Fluoro-4-[3-methyl-4-(2-phenyl-piperazin-1-ylmethyl)-1H-pyrazolo[3,4-b]pyridin-6-yl]-phenol], for which the inhibition at 1.14 µM was 95%.
The same measure for `Cc1n[nH]c2nc(-c3ccc(O)cc3)cc(CN3CC(C)(C)NC[C@@H]3C)c12` [Example 139, 4-[3-Methyl-4-((S)-2,5,5-trimethyl-piperazin-1-ylmethyl)-1H-pyrazolo[3,4-b]pyridin-6-yl]-phenol]: 95%.
To `CCC1(CC)CN(Cc2cc(-c3ccc(O)c(F)c3)nc3[nH]nc(C)c23)C(C)(C)CN1` [Example 58, 4-[4-(5,5-Diethyl-2,2-dimethyl-piperazin-1-ylmethyl)-3-methyl-1H-pyrazolo[3,4-b]pyridin-6-yl]-2-fluoro-phenol] belongs 91%.
The same measure for `CC[C@H]1CNC(C)(C)CN1Cc1cc(-c2ccc(O)cc2F)nc2[nH]nc(C)c12` [Example 143, 4-[4-((S)-2-Ethyl-5,5-dimethyl-piperazin-1-ylmethyl)-3-methyl-1H-pyrazolo[3,4-b]pyridin-6-yl]-3-fluoro-phenol]: 101%.
Turning to `Cc1n[nH]c2nc(-c3ccc(O)cc3)cc(CN3CCNCC3c3ccccc3)c12` (stereo not shown) [Example 41, 4-[3-Methyl-4-(2-phenyl-piperazin-1-ylmethyl)-1H-pyrazolo[3,4-b]pyridin-6-yl]-phenol], the inhibition at 1.14 µM came out at 93%.
For `Cc1n[nH]c2nc(-c3ccc(O)cc3F)cc(CN3CC(C)(C)N(CC4CCOCC4)CC3(C)C)c12` [Example 70, 3-Fluoro-4-{3-methyl-4-[2,2,5,5-tetramethyl-4-(tetrahydro-pyran-4-ylmethyl)-piperazin-1-ylmethyl]-1H-pyrazolo[3,4-b]pyridin-6-yl}-phenol], the inhibition at 1.14 µM was 96%.
To `COC(=O)CN1CC(C)(C)N(Cc2cc(-c3ccc(O)cc3F)nc3[nH]nc(C)c23)CC1(C)C` [Example 74, {4-[6-(2-Fluoro-4-hydroxy-phenyl)-3-methyl-1H-pyrazolo[3,4-b]pyridin-4-ylmethyl]-2,2,5,5-tetramethyl-piperazin-1-yl}-acetic acid methyl ester] belongs 95%.
To `COC(=O)CN1CC(C)(C)N(Cc2cc(-c3ccc(O)cc3)nc3[nH]nc(C)c23)CC1(C)C` [Example 86, {4-[6-(4-Hydroxy-phenyl)-3-methyl-1H-pyrazolo[3,4-b]pyridin-4-ylmethyl]-2,2,5,5-tetramethyl-piperazin-1-yl}-acetic acid methyl ester] belongs 86%.
The same measure for `COCCCN1CC(C)(C)N(Cc2cc(-c3ccc(O)cc3F)nc3[nH]nc(C)c23)CC1(C)C` [Example 67, 3-Fluoro-4-{4-[4-(3-methoxy-propyl)-2,2,5,5-tetramethyl-piperazin-1-ylmethyl]-3-methyl-1H-pyrazolo[3,4-b]pyridin-6-yl}-phenol]: 103%; for `CCC1(CC)CN(Cc2cc(-c3ccc(O)cc3Cl)nc3[nH]nc(C)c23)C(C)(C)CN1` [Example 59, 3-Chloro-4-[4-(5,5-diethyl-2,2-dimethyl-piperazin-1-ylmethyl)-3-methyl-1H-pyrazolo[3,4-b]pyridin-6-yl]-phenol]: 96%; for `CCC1(C)CNC(C)(C)CN1Cc1cc(-c2ccc(O)cc2F)nc2[nH]nc(C)c12` (stereo not shown) [Example 31, 4-[4-(2-Ethyl-2,5,5-trimethyl-piperazin-1-ylmethyl)-3-methyl-1H-pyrazolo[3,4-b]pyridin-6-yl]-3-fluoro-phenol]: 101%.
As for `COCCN1CC(C)(C)N(Cc2cc(-c3ccc(O)cc3)nc3[nH]nc(C)c23)CC1C` (stereo not shown) [Example 63, 4-{4-[4-(2-Methoxy-ethyl)-2,2,5-trimethyl-piperazin-1-ylmethyl]-3-methyl-1H-pyrazolo[3,4-b]pyridin-6-yl}-phenol], the inhibition at 1.14 µM amounted to 97%.
To `Cc1n[nH]c2nc(-c3ccc(O)cc3)cc(CN3C[C@H](C)NC[C@H]3c3ccccc3)c12` [Example 112, 4-[3-Methyl-4-((2R,5S)-5-methyl-2-phenyl-piperazin-1-ylmethyl)-1H-pyrazolo[3,4-b]pyridin-6-yl]-phenol] belongs 85%; to `CC[C@@]1(C)CNC(C)(C)CN1Cc1cc(-c2ccc(O)cc2F)nc2[nH]nc(C)c12` [Example 122, 4-[4-((S)-2-Ethyl-2,5,5-trimethyl-piperazin-1-ylmethyl)-3-methyl-1H-pyrazolo[3,4-b]pyridin-6-yl]-3-fluoro-phenol], 100%.
The same measure for `Cc1n[nH]c2nc(-c3ccc(O)cc3F)cc(CN3CCNCC34CCCC4)c12` [Example 7, 4-[4-(6,9-Diaza-spiro[4.5]dec-6-ylmethyl)-3-methyl-1H-pyrazolo[3,4-b]pyridin-6-yl]-3-fluoro-phenol]: 103%.
To `Cc1n[nH]c2nc(-c3ccc(O)cc3F)cc(CN3CCNC[C@H]3c3ccc(C(F)(F)F)cc3)c12` [Example 104, 3-Fluoro-4-{3-methyl-4-[(R)-2-(4-trifluoromethyl-phenyl)-piperazin-1-ylmethyl]-1H-pyrazolo[3,4-b]pyridin-6-yl}-phenol] belongs 83%.
Consider `Cc1n[nH]c2nc(-c3ccc(O)cc3F)cc(CN3CC(C)(C)N(C(=O)C4CCOC4)CC3(C)C)c12` (stereo not shown) [Example 77, {4-[6-(2-Fluoro-4-hydroxy-phenyl)-3-methyl-1H-pyrazolo[3,4-b]pyridin-4-ylmethyl]-2,2,5,5-tetramethyl-piperazin-1-yl}-(tetrahydro-furan-3-yl)-methanone], for which the inhibition at 1.14 µM was 98%.
To `Cc1n[nH]c2nc(-c3ccc(O)cc3F)cc(CN3CCNC[C@@H]3c3ccc(F)cc3)c12` [Example 105, 3-Fluoro-4-{4-[(S)-2-(4-fluoro-phenyl)-piperazin-1-ylmethyl]-3-methyl-1H-pyrazolo[3,4-b]pyridin-6-yl}-phenol] belongs 100%; to `Cc1n[nH]c2nc(-c3ccc(O)cc3F)cc(CN3CCNC[C@H]3C(F)(F)F)c12` [Example 108, 3-Fluoro-4-[3-methyl-4-((S)-2-trifluoromethyl-piperazin-1-ylmethyl)-1H-pyrazolo[3,4-b]pyridin-6-yl]-phenol], 102%; to `Cc1n[nH]c2nc(-c3ccc(O)cc3F)cc(CN3CCNCC3C(F)(F)F)c12` (stereo not shown) [Example 5, 3-Fluoro-4-[3-methyl-4-(2-trifluoromethyl-piperazin-1-ylmethyl)-1H-pyrazolo[3,4-b]pyridin-6-yl]-phenol], 109%.
To `Cc1n[nH]c2nc(-c3ccc(O)cc3)cc(CN3CCNCC3c3ccc(F)cc3)c12` (stereo not shown) [Example 42, 4-{4-[2-(4-Fluoro-phenyl)-piperazin-1-ylmethyl]-3-methyl-1H-pyrazolo[3,4-b]pyridin-6-yl}-phenol] belongs 94%; to `Cc1n[nH]c2nc(-c3ccc(O)cc3F)cc(CN3CCNC[C@@H]3c3cccc(F)c3)c12` [Example 119, 3-Fluoro-4-{4-[(S)-2-(3-fluoro-phenyl)-piperazin-1-ylmethyl]-3-methyl-1H-pyrazolo[3,4-b]pyridin-6-yl}-phenol], 86%.
To `Cc1n[nH]c2nc(-c3ccc(O)cc3)cc(CN3CC(C)(C)NCC3(C)C)c12` [Example 49, 4-[3-Methyl-4-(2,2,5,5-tetramethyl-piperazin-1-ylmethyl)-1H-pyrazolo[3,4-b]pyridin-6-yl]-phenol] belongs 95%; to `Cc1n[nH]c2nc(-c3ccc(O)cc3)cc(CN3CC(C)N(Cc4cccnc4)CC3(C)C)c12` (stereo not shown) [Example 61, 4-[3-Methyl-4-(2,2,5-trimethyl-4-pyridin-3-ylmethyl-piperazin-1-ylmethyl)-1H-pyrazolo[3,4-b]pyridin-6-yl]-phenol], 84%.
For the compound `Cc1n[nH]c2nc(-c3ccc(O)cc3)cc(CN3CCNC[C@H]3c3ccc(C(F)(F)F)cc3)c12` [Example 114, 4-{3-Methyl-4-[(R)-2-(4-trifluoromethyl-phenyl)-piperazin-1-ylmethyl]-1H-pyrazolo[3,4-b]pyridin-6-yl}-phenol], the inhibition at 1.14 µM worked out at 57%.
The same measure for `Cc1n[nH]c2nc(-c3ccc(O)cc3F)cc(CN3C[C@@H](C)NCC34CCCC4)c12` [Example 128, 3-Fluoro-4-[3-methyl-4-((R)-8-methyl-6,9-diaza-spiro[4.5]dec-6-ylmethyl)-1H-pyrazolo[3,4-b]pyridin-6-yl]-phenol]: 71%.

By inhibition is commonly meant the change of the read-out against control, counted positive when it falls.
